In PubChem BioAssay (NCI):
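Compound exposure: 48 hours, 5 concentrations, 96-well plates. At the GI50, growth is halved. TGI denotes the concentration required for complete inhibition of growth.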

Columns and labels:
Assay in all cases: NCI tumour cell line growth inhibition, 48 h
SF-295 CNS = tested on: SF-295 CNS
K-562 leukemia = tested on: K-562 leukemia
SK-OV-3 ovarian = tested on: SK-OV-3 ovarian
M14 melanoma = tested on: M14 melanoma
HT29 colon = tested on: HT29 colon
EKVX NSCLC = tested on: EKVX NSCLC
CCRF-CEM leukemia = tested on: CCRF-CEM leukemia
HOP-62 NSCLC = tested on: HOP-62 NSCLC
HCT-116 colon = tested on: HCT-116 colon
SK-MEL-2 melanoma = tested on: SK-MEL-2 melanoma

SMILES | GI50 (SF-295 CNS) [µM] | TGI (SF-295 CNS) [µM] | GI50 (K-562 leukemia) [µM] | TGI (K-562 leukemia) [µM] | GI50 (SK-OV-3 ovarian) [µM] | TGI (SK-OV-3 ovarian) [µM] | GI50 (M14 melanoma) [µM] | TGI (M14 melanoma) [µM] | GI50 (HT29 colon) [µM] | TGI (HT29 colon) [µM] | GI50 (EKVX NSCLC) [µM] | TGI (EKVX NSCLC) [µM] | GI50 (CCRF-CEM leukemia) [µM] | TGI (CCRF-CEM leukemia) [µM] | GI50 (HOP-62 NSCLC) [µM] | TGI (HOP-62 NSCLC) [µM] | GI50 (HCT-116 colon) [µM] | TGI (HCT-116 colon) [µM] | GI50 (SK-MEL-2 melanoma) [µM] | TGI (SK-MEL-2 melanoma) [µM]
CC(C)=[CH][Sb]([Br])([CH]=C(C)C)([CH]=C(C)C)[CH]=C(C)C | 17.3 | 53.4 | 6.7 | > 100 | 2.5 | 8.83 | 10.1 | 37.8 | 15.1 | > 100 | 4.88 | 88.6 | 4.8 | > 100 | 40.3 | > 100 | 13.9 | 60.4 | 15.4 | > 100
CCC1(O)C(=O)OCc2c1cc1n(c2=O)Cc2cc3c(N)cccc3nc2-1 (stereo unspecified) |  | 2.01 |  | > 48.2 |  | 0.804 | < 0.01 | 0.0872 |  | 22.8 |  | 30.3 |  | 0.0858 |  | 0.0748 |  | 0.735 |  | 3.43
COc1ccc(-n2cc(-c3cc(OC)c(OC)c(OC)c3)[nH]c2=S)cc1OC | > 100 | > 100 | > 100 | > 100 | > 100 | > 100 | > 100 | > 100 | > 100 | > 100 | > 100 | > 100 | > 100 | > 100 | > 100 | > 100 | > 100 | > 100 | > 100 | > 100
